# System: M5076 cells
# Experiment: Antitumor test in mice inoculated subcutaneously with M5076 cells (tumor size, T/C)
# Format: in vivo, C57BL/6 mice
# Settings: 20 mg/kg, subcutaneous, 10 times in total; tumor size after 13 days
# Procedure: C57BL/6 mice (a group consisting of 6 mice) were inoculated subcutaneously at the dorsolateral area with 2×10^6 M5076 cells, and then a test compound dissolved in a 5% gum arabic physiological saline solution was subcutaneously administered 10 times in total, i.e. 1st, 2nd, 4th, 5th, 6th, 7th, 8th, 9th, 11th and 12th day after the inoculation. After 13 days, the major axis (a) and the minor axis (b) of the tumor tissue were measured to determine the tumor size by the calculation formula of a×b^2 ×1/2. The ratio of the tumor size thus calculated to the tumor size of animals in the control group was shown by T/C (%).
row,Molecule,T/C (%) (ratio of tumor size to control group)
1,"4-(N'-chloroacetylureido)-2-(1,2-epoxy-1,5-dimethyl-4-hexenyl)-1-(1,3-dihydrobenzo[c]thiophen-2-ylio)methyl-3-methoxycyclohexanol chloride [Example 100]",22
2,"CO[C@@H]1[C@H](OC(=O)NC(=O)CCl)CC[C@](O)(C[S+](C)Cc2cccc(Br)c2)[C@H]1[C@@]1(C)O[C@@H]1CC=C(C)C (single isomer, unassigned) [Example 65A, 1-(3-bromobenzyl)methylsulfoniomethyl-4-(N-chloroacetylcarbamoyloxy)-2-(1,2-epoxy-1,5-dimethyl-4-hexenyl)-3-methoxycyclohexanol bromide]",9
3,"CO[C@@H]1[C@H](OC(=O)NC(=O)CCl)CC[C@](O)(C[S+](C)Cc2cccc(Br)c2)[C@H]1[C@@]1(C)O[C@@H]1CC=C(C)C (single isomer, unassigned) [Example 65B, 1-(3-bromobenzyl)methylsulfoniomethyl-4-(N-chloroacetylcarbamoyloxy)-2-(1,2-epoxy-1,5-dimethyl-4-hexenyl)-3-methoxycyclohexanol bromide]",37

# Same assay, conditions: Mus musculus, M5076, sc, 312 h, 20 mg/kg, subcutaneous, 10 times in total; tumor size after 13 days; read-out: T/C (%) (ratio of tumor size to control group)
row,Molecule,response vs control in vivo at 20 mg/kg [%]
1,"CO[C@@H]1[C@H](OC(=O)NC(=O)CCl)CC[C@](O)(C[S+](C)Cc2ccc(Br)cc2)[C@H]1[C@@]1(C)O[C@@H]1CC=C(C)C (stereo partly drawn) [Example 60, 1-(4-Bromobenzyl)methylsulfoniomethyl-4-(N-chloroacetylcarbamoyloxy)-2-(1,2-epoxy-1,5-dimethyl-4-hexenyl)-3-methoxycyclohexanol bromide]",21
2,"CO[C@@H]1[C@H](OC(=O)NC(=O)CCl)CC[C@](O)(C[S+](C)Cc2ccc(Cl)cc2)[C@H]1[C@@]1(C)O[C@@H]1CC=C(C)C (stereo partly drawn) [Example 61, 4-(N-Chloroacetylcarbamoyloxy)-1-(4-chlorobenzyl)methylsulfoniomethyl-2-(1,2-epoxy-1,5-dimethyl-4-hexenyl)-3-methoxycyclohexanol bromide]",27
3,"CO[C@@H]1[C@H](OC(=O)NC(=O)CCl)CC[C@](O)(C[S+](C)Cc2ccc(F)cc2)[C@H]1[C@@]1(C)O[C@@H]1CC=C(C)C (stereo partly drawn) [Example 62, 4-(N-Chloroacetylcarbamoyloxy)-2-(1,2-epoxy-1,5-dimethyl-4-hexenyl)-1-(4-fluorobenzyl)methylsulfoniomethyl-3-methoxycyclohexanol bromide]",29
4,"CO[C@@H]1[C@H](OC(=O)NC(=O)CCl)CC[C@](O)(C[S+](C)Cc2cccc(Br)c2)[C@H]1[C@@]1(C)O[C@@H]1CC=C(C)C (stereo partly drawn) [Example 64, 1-(3-Bromobenzyl)methylsulfoniomethyl-4-(N-chloroacetylcarbamoyloxy)-2-(1,2-epoxy-1,5-dimethyl-4-hexenyl)-3-methoxycyclohexanol bromide]",24
5,"CO[C@@H]1[C@H](OC(=O)NC(=O)CCl)CC[C@](O)(C[S+](C)Cc2ccccc2)[C@H]1[C@@]1(C)O[C@@H]1CC=C(C)C (stereo partly drawn) [Example 76, 1-Benzylmethylsulfoniomethyl-4-chloroacetylcarbamoyloxy-2-(1,2-epoxy-1,5-dimethyl-4-hexenyl)-3-methoxycyclohexanol hydrogen L-tartrate]",29
6,"CO[C@@H]1[C@H](OC(=O)NC(=O)CCl)CC[C@](O)(C[S+]2Cc3ccccc3C2)[C@H]1[C@@]1(C)O[C@@H]1CC=C(C)C [Example 82, 4-(N-Chloroacetylcarbamoyloxy)-2-(1,2-epoxy-1,5-dimethyl-4-hexenyl)-1-(1,3-dihydrobenzo[c]thiophen-2-ylio)methyl-3-methoxycyclohexanol chloride]",9
7,"CO[C@@H]1[C@H](OC(=O)NC(=O)CCl)CC[C@](O)(C[S+]2CC3CC=CCC3C2)[C@H]1[C@@]1(C)O[C@@H]1CC=C(C)C (stereo partly drawn) [Example 104, 4-(N-chloroacetylcarbamoyloxy)-2-(1,2-epoxy-1,5-dimethyl-4-hexenyl)-1-(1,3,3a,4,7,7ahexahydrobenzo[c]thiophen-2-ylio)methyl-3-methoxycyclohexanol chloride]",16

# Same assay, conditions: Mus musculus, M5076, sc, 312 h, 30 mg/kg, subcutaneous, 10 times in total; tumor size after 13 days; read-out: T/C (%) (ratio of tumor size to control group)
row,Molecule,response vs control in vivo at 30 mg/kg [%]
1,"CO[C@@H]1[C@H](OC(=O)NC(=O)CCl)CC[C@](O)(CCl)[C@H]1[C@@]1(C)O[C@@H]1CC=C(C)C [Example 1c, 4-O-(Chloroacetylcarbamoyl)-2-(1,2-epoxy-1,5-dimethyl-4-hexenyl)-3-methoxy-1-chloromethyl-1,4-cyclohexanediol]",20
2,"C=CC(=O)NC(=O)O[C@@H]1CC[C@](O)(CCl)[C@@H]([C@@]2(C)O[C@@H]2CC=C(C)C)[C@@H]1OC [Example 2, 4-O-(Acryloylcarbamoyl)-2-(1,2-epoxy-1,5-dimethyl-4-hexenyl)-3-methoxy-1-chloromethyl-1,4-cyclohexanediol]",20
3,"CO[C@@H]1[C@H](OC(=O)NC(=O)CCl)CC[C@](O)(C[S+](C)C)[C@H]1[C@@]1(C)O[C@@H]1CC=C(C)C [Example 13, 4-O-(Chloroacetylcarbamoyl)-2-(1,2-epoxy-1,5-dimethyl-4-hexenyl)-3-methoxy-1-dimethylsulfoniomethyl-1,4-cyclohexanediol iodide]",36
4,"CO[C@@H]1[C@H](OC(=O)NC(=O)CCl)CC[C@](O)(C[S+](C)Cc2ccccc2)[C@H]1[C@@]1(C)O[C@@H]1CC=C(C)C (stereo partly drawn) [Example 16, 4-O-(N-chloroacetylcarbamoyl)-2-(1,2-epoxy-1,5-dimethyl-4-hexenyl)-3-methoxy-1-benzylmethylsulfoniomethyl-1,4-cyclohexanediol bromide]",20
5,"C#CC[S+](C)C[C@@]1(O)CC[C@@H](OC(=O)NC(=O)CCl)[C@@H](OC)[C@@H]1[C@@]1(C)O[C@@H]1CC=C(C)C (stereo partly drawn) [Example 17, 4-O-(Chloroacetylcarbamoyl)-2-(1,2-epoxy-1,5-dimethyl-4-hexenyl)-3-methoxy-1-(2-propinyl)-methylsulfoniomethyl-1,4-cyclohexanediol bromide]",21

# System: angiogenesis due to bFGF (rat cornea)
# Experiment: Angiogenesis inhibitory action by the rat cornea micropocket method
# Format: in vivo, male Sprague-Dawley rats
# Settings: sustained release pellet, 20 μg sample, next to bFGF pellet (250 ng) in cornea; observed after 10 days
# From the text: Angiogenesis inhibitory action by the rat cornea micropocket method
# Essentially the same method of Gimbrone et al. [J. National Cancer Institute 52:413-419 (1974)] was follows.
# Specifically, adult male Sprague-Dawley rats (11 to 16 week old) were anesthetized with nembtal and locally anesthetized by instillation of xylocaine eyedrops onto the eyeball. The cornea was incised to a length of about 2 mm at about 2 mm inside from the corneal circumference by means of an injection needle, and a basic fibroblast growth factor (bFGF, bovine brain-derived, purified product, R & D Inc.) and a sustained release pellet containing the test sample were inserted side by side into the incision so that the bFGF pellet was located on the central side in the cornea. In the control group, the bFGF pellet and a sample-free pellet were inserted into the cornea. After 10 days, the cornea was observed under a stereoscopic microscope.
# The sustained release pellets were prepared in the following manner. An ethylene-vinyl acetate copolymer (Takeda Chemical Industries, Ltd.) was dissolved in dichloromethane to a concentration of 8%. A 3 μl portion of the solution was air-dried on a glass dish, an aqueous solution of bFGF (250 ng) was then placed thereon and air-dried and, finally 3 μl of the above-mentioned ethylene-vinyl acetate copolymer solution was placed further thereon and air-dried to give a sandwich sheet. This sandwich sheet was made round into a bFGF pellet. The test sample pellets were prepared by dissolving each sample in ethanol to a concentration of 20 μg/2 μl, mixing the solution with 6 μl of an ethylene-vinyl acetate copolymer solution, air-drying the mixed solution on a glass dish and making the thus-obtained sheet round.
# In the above Table 1, the number of rats subjected to the test was shown by denominator, and the number of rats whose […] due to bFGF was retarded or weakened by administration of the test sample was shown by numerator. In the judgment, +means an inhibition rate of 70% or more, and ±means that of less than 70% but exceeding 40%.
Molecule,Inhibitory Rate (rats whose angiogenesis due to bFGF was retarded or weakened / rats subjected to the test),Judgment (Angiogenesis Inhibitory Activity)
"CO[C@@H]1[C@H](OC(=O)NC(=O)CCl)CC[C@](O)(CCl)[C@H]1[C@@]1(C)O[C@@H]1CC=C(C)C [Example 1c, 4-O-(Chloroacetylcarbamoyl)-2-(1,2-epoxy-1,5-dimethyl-4-hexenyl)-3-methoxy-1-chloromethyl-1,4-cyclohexanediol]",5/5,+ (an inhibition rate of 70% or more)
"CO[C@@H]1[C@H](OC(=O)NC(=O)C(C)CCl)CC[C@](O)(CCl)[C@H]1[C@@]1(C)O[C@@H]1CC=C(C)C (stereo partly drawn) [Example 4, 4-O-(3-Chloro-2-methyl-propionylcarbamoyl)-2-(1,2-epoxy-1,5-dimethyl-4-hexenyl)-3-methoxy-1-chloromethyl-1,4-cyclohexanediol]",3/5,± (that of less than 70% but exceeding 40%)
"CO[C@@H]1[C@H](O)CC[C@](O)(CSC)[C@H]1[C@@]1(C)O[C@@H]1CC=C(C)C [Example 10, 2-(1,2-Epoxy-1,5-dimethyl-4-hexenyl)-3-methoxy-1-methylthiomethyl-1,4-cyclohexanediol]",4/7,± (that of less than 70% but exceeding 40%)
"CO[C@@H]1[C@H](O)CC[C@](O)(C[N+]2([O-])CCCC2)[C@H]1[C@@]1(C)O[C@@H]1CC=C(C)C [Example 48, 2-(1,2-Epoxy-1,5-dimethyl-4-hexenyl)-3-methoxy-1-(pyrrolidin-1-yl)methyl-1,4-cyclohexanediol N-oxide]",4/7,± (that of less than 70% but exceeding 40%)
"CO[C@@H]1[C@H](OC(N)=O)CC[C@](O)(C[S+](C)C)[C@H]1[C@@]1(C)O[C@@H]1CC=C(C)C [Example 70, 4-Carbamoyloxy-2-(1,2-epoxy-1,5-dimethyl-4-hexenyl)-3-methoxy-1-dimethylsulfoniomethyl-cyclohexanol iodide]",5/6,+ (an inhibition rate of 70% or more)
CO[C@@H]1[C@H](OC(=O)NC(=O)CSc2nc3ccccc3s2)CC[C@](O)(CCl)[C@H]1[C@@]1(C)O[C@@H]1CC=C(C)C [Example 91],6/6,+ (an inhibition rate of 70% or more)

# Source: patent US5180735A, “Cyclohexanol derivatives, production and use thereof” (Takeda Chemical Industries, Ltd., priority 1989, dated 1993)
